Marks after values point to notes of the source that are not given here.
Experiment: Percent purity of PTHrP analogue in coating with varying His-HCl concentration, three storage conditions (HPLC)
Format: physicochemical
Settings: peptide 10 mg/mL in PBS
Protocol: The protein or polypeptide content in the formulation coated on the microneedle arrays was determined using an Agilent 1100 HPLC system (Agilent Technologies, Wilmington, Del.) equipped with a binary pump, well-plated thermostated autosampler, thermostated column compartment, and a diode array UV detector. A Zorbax 300SB-C8 column (Agilent Technologies, Wilmington, Del.) having a 5 μm particle size and 2.1×150 mm inner diameter was used for the separations. The column was maintained at 50° C. The mobile phase consisted of two eluents. Eluent A was 0.1% TFA (trifluoroacetic acid) in water and eluent B was 0.1% TFA in acetonitrile (Spectrum Chemical, New Brunswick, N.J.). A linear gradient from 80/20 to 50/50 (A/B) was applied over 30 minutes. The flow rate was 0.4 mL/minute and the UV detection wavelength was set at 214 nm. The total run time was 34 minutes and the sample injection volume was 15 μL.
Five sample formulations were prepared containing 10 mg/mL of [Glu^22,25,Leu^23,28,31,Aib^29,Lys^26,30]hPTHrP(1-34)NH2 and varying concentrations of L-histidine monohydrochloride (His-HCl) in PBS. The concentrations of His-HCl in the sample formulations range from 1 mg/mL to 10 mg/mL. A control formulation was also prepared containing 10 mg/mL of [Glu^22,25,Leu^23,28,31,Aib^29,Lys^26,30]hPTHrP(1-34)NH2 in PBS. […] Microneedle arrays were coated with either the sample or the control formulations. The coating was applied by dropwise addition of 40 μL of the formulation to the portion of the array defined by the octagon shaped pattern of microneedles. The flood coated arrays (both sample and control formulation coated) were dried in an oven at 35° C. for 1.5 hours followed by 30° C. for 15 hours.
After drying, the coated arrays were placed in a storage chamber that was maintained at one of three storage conditions: 40° C./96% RH (storage condition A); 25° C./60% RH (storage condition B); or 5° C./ambient RH. The [Glu^22,25,Leu^23,28,31,Aib^29,Lys^26,30]hPTHrP(1-34)NH2 content of the coated arrays was determined following storage in a chamber for 1 day, 3 days, 7 days, 14 days, 21 days, 28 days, and 2 months. The initial [Glu^22,25,Leu^23,28,31,Aib^29,Lys^26,30]hPTHrP(1-34)NH2 content was also determined using freshly coated arrays (both sample and control formulation coated). The arrays used to determine initial content were stored in a refrigerator at about 4° C. and analyzed within one day of being prepared. At the designated time point, an array was taken from the chamber and washed with PBS (3.5 mL) to remove the coating from the array. An aliquot of the resulting wash solution was analyzed for [Glu^22,25,Leu^23,28,31,Aib^29,Lys^26,30]hPTHrP(1-34)NH2 content using the HPLC method described above. The results were quantified against an external standard of [Glu^22,25,Leu^23,28,31,Aib^29,Lys^26,30]hPTHrP(1-34)NH2. At each time point, the percent purity of [Glu^22,25,Leu^23,28,31,Aib^29,Lys^26,30]hPTHrP(1-34)NH2 in the coating was determined by measuring the peak area for [Glu^22,25,Leu^23,28,31,Aib^29,Lys^26,30]hPTHrP(1-34)NH2 in the selected coating and dividing it by the total peak area measured for all [Glu^22,25,Leu^23,28,31,Aib^29,Lys^26,30]hPTHrP(1-34)NH2 related peaks.

Percent Purity of [Glu^22,25, Leu^23,28,31, Aib^29, Lys^26,30]hPTHrP(1-34)NH2 (Histidine-HCl 1 mg/mL, Storage Condition B (25° C./60% RH), 2 months): 98.1% | Percent Purity of [Glu^22,25, Leu^23,28,31, Aib^29, Lys^26,30]hPTHrP(1-34)NH2 (Histidine-HCl 1 mg/mL, Storage Condition B (25° C./60% RH), Day 3): 98.7% | Percent Purity of [Glu^22,25, Leu^23,28,31, Aib^29, Lys^26,30]hPTHrP(1-34)NH2 (Histidine-HCl 1 mg/mL, Storage Condition B (25° C./60% RH), Day 7): 98.8% | Percent Purity of [Glu^22,25, Leu^23,28,31, Aib^29, Lys^26,30]hPTHrP(1-34)NH2 (Histidine-HCl 1 mg/mL, Storage Condition B (25° C./60% RH), Day 14): 98.7% | Percent Purity of [Glu^22,25, Leu^23,28,31, Aib^29, Lys^26,30]hPTHrP(1-34)NH2 (Histidine-HCl 1 mg/mL, Storage Condition B (25° C./60% RH), Day 28): 98.8% | Percent Purity of [Glu^22,25, Leu^23,28,31, Aib^29, Lys^26,30]hPTHrP(1-34)NH2 (Histidine-HCl 1 mg/mL, Storage Condition B (25° C./60% RH), Initial): 99.0% | Percent Purity of [Glu^22,25, Leu^23,28,31, Aib^29, Lys^26,30]hPTHrP(1-34)NH2 (Histidine-HCl 2 mg/mL, Storage Condition A (40° C./96% RH), Day 1): 98.4% | Percent Purity of [Glu^22,25, Leu^23,28,31, Aib^29, Lys^26,30]hPTHrP(1-34)NH2 (Histidine-HCl 2 mg/mL, Storage Condition A (40° C./96% RH), Day 3): 97.5% | Percent Purity of [Glu^22,25, Leu^23,28,31, Aib^29, Lys^26,30]hPTHrP(1-34)NH2 (Histidine-HCl 2 mg/mL, Storage Condition A (40° C./96% RH), Day 7): 83.2% | Percent Purity of [Glu^22,25, Leu^23,28,31, Aib^29, Lys^26,30]hPTHrP(1-34)NH2 (Histidine-HCl 2 mg/mL, Storage Condition A (40° C./96% RH), Day 14): 50.0% | Percent Purity of [Glu^22,25, Leu^23,28,31, Aib^29, Lys^26,30]hPTHrP(1-34)NH2 (Histidine-HCl 2 mg/mL, Storage Condition A (40° C./96% RH), Day 21, the sample for analysis contained insoluble impurities): 36.8^(a) percent | Percent Purity of [Glu^22,25, Leu^23,28,31, Aib^29, Lys^26,30]hPTHrP(1-34)NH2 (Histidine-HCl 2 mg/mL, Storage Condition A (40° C./96% RH), Initial): 99.0% | Percent Purity of [Glu^22,25, Leu^23,28,31, Aib^29, Lys^26,30]hPTHrP(1-34)NH2 (Histidine-HCl 2 mg/mL, Storage Condition B (25° C./60% RH), 2 months): 98.1% | Percent Purity of [Glu^22,25, Leu^23,28,31, Aib^29, Lys^26,30]hPTHrP(1-34)NH2 (Histidine-HCl 2 mg/mL, Storage Condition B (25° C./60% RH), Day 3): 98.8% | Percent Purity of [Glu^22,25, Leu^23,28,31, Aib^29, Lys^26,30]hPTHrP(1-34)NH2 (Histidine-HCl 2 mg/mL, Storage Condition B (25° C./60% RH), Day 7): 98.8% | Percent Purity of [Glu^22,25, Leu^23,28,31, Aib^29, Lys^26,30]hPTHrP(1-34)NH2 (Histidine-HCl 2 mg/mL, Storage Condition B (25° C./60% RH), Day 14): 98.8% | Percent Purity of [Glu^22,25, Leu^23,28,31, Aib^29, Lys^26,30]hPTHrP(1-34)NH2 (Histidine-HCl 2 mg/mL, Storage Condition B (25° C./60% RH), Day 28): 98.9% | Percent Purity of [Glu^22,25, Leu^23,28,31, Aib^29, Lys^26,30]hPTHrP(1-34)NH2 (Histidine-HCl 2 mg/mL, Storage Condition B (25° C./60% RH), Initial): 99.0% | Percent Purity of [Glu^22,25, Leu^23,28,31, Aib^29, Lys^26,30]hPTHrP(1-34)NH2 (Histidine-HCl 3.3 mg/mL, Storage Condition A (40° C./96% RH), Day 1): 98.6% | Percent Purity of [Glu^22,25, Leu^23,28,31, Aib^29, Lys^26,30]hPTHrP(1-34)NH2 (Histidine-HCl 3.3 mg/mL, Storage Condition A (40° C./96% RH), Day 3): 97.8% | Percent Purity of [Glu^22,25, Leu^23,28,31, Aib^29, Lys^26,30]hPTHrP(1-34)NH2 (Histidine-HCl 3.3 mg/mL, Storage Condition A (40° C./96% RH), Day 7): 93.5% | Percent Purity of [Glu^22,25, Leu^23,28,31, Aib^29, Lys^26,30]hPTHrP(1-34)NH2 (Histidine-HCl 3.3 mg/mL, Storage Condition A (40° C./96% RH), Day 14): 58.3% | Percent Purity of [Glu^22,25, Leu^23,28,31, Aib^29, Lys^26,30]hPTHrP(1-34)NH2 (Histidine-HCl 3.3 mg/mL, Storage Condition A (40° C./96% RH), Day 21, the sample for analysis contained insoluble impurities): 78.2^(a) percent | Percent Purity of [Glu^22,25, Leu^23,28,31, Aib^29, Lys^26,30]hPTHrP(1-34)NH2 (Histidine-HCl 3.3 mg/mL, Storage Condition A (40° C./96% RH), Initial): 99.3% | Percent Purity of [Glu^22,25, Leu^23,28,31, Aib^29, Lys^26,30]hPTHrP(1-34)NH2 (Histidine-HCl 3.3 mg/mL, Storage Condition B (25° C./60% RH), 2 months): 98.5% | Percent Purity of [Glu^22,25, Leu^23,28,31, Aib^29, Lys^26,30]hPTHrP(1-34)NH2 (Histidine-HCl 3.3 mg/mL, Storage Condition B (25° C./60% RH), Day 3): 98.9% | Percent Purity of [Glu^22,25, Leu^23,28,31, Aib^29, Lys^26,30]hPTHrP(1-34)NH2 (Histidine-HCl 3.3 mg/mL, Storage Condition B (25° C./60% RH), Day 7): 98.8% | Percent Purity of [Glu^22,25, Leu^23,28,31, Aib^29, Lys^26,30]hPTHrP(1-34)NH2 (Histidine-HCl 3.3 mg/mL, Storage Condition B (25° C./60% RH), Day 14): 98.9% | Percent Purity of [Glu^22,25, Leu^23,28,31, Aib^29, Lys^26,30]hPTHrP(1-34)NH2 (Histidine-HCl 3.3 mg/mL, Storage Condition B (25° C./60% RH), Day 28): 98.8%
Substance: [Glu^22,25,Leu^23,28,31,Aib^29,Lys^26,30]hPTHrP(1-34)NH2

— patent US10154957B2, “Microneedle device having a peptide therapeutic agent and an amino acid and methods of making and using the same” (3M INNOVATIVE PROPERTIES COMPANY, priority 2011, dated 2018)
